These are literature values, as cited in patent publication US5141290A, “Toothbrush” (Hamivreshet Brush Factory, priority 1990, dated 1992).

This data set deals with dental plaque.

SMILES strings stand for the structures.

On to `[H]/N=C(\N/C(=N/[H])NCCCCCCNC(=N)NC(=N)Nc1ccc(Cl)cc1)Nc1ccc(Cl)cc1` [chlorhexidine], for which the “potential to inhibit the formation of plaque” value (clinically tested, among chemical agents) is given as “has shown the greatest promise”. Besides, where the note is “in vivo”, the plaque-reducing property result is on record as “high plaque-reducing property”.
